Measured values from the supplement of paper PMC10627819.

Legend:
[1] = system: S. aureus DSM 20231; experiment: Bliss interaction score (quartile over a dose matrix) (fitness difference); higher = more antagonism (negative = synergy)
In short: (§1)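 Fitness is OD595 at stationary-phase entry relative to the plate's robust no-drug mean, capped at 1. Single-drug fitness was inferred from combinations. The Bliss score is observed minus product-expected fitness, summarised by quartiles over technical, biological and donor/recipient replicates.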

[2] = system: S. pneumoniae D39V; experiment: as above
In short: as §1

[3] = system: B. subtilis 168; experiment: as above
In short: as §1

[4] = system: S. aureus Newman; experiment: as above
In short: as §1

[5] = system: S. aureus DSM 20231; experiment: fitness (endpoint OD595 vs no drug) (fraction); higher = more growth
In short: (§2)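 In 384-well plates at 37 °C, cultures began at OD595 0.01 in 30 µl, with 55 µl used for S. pneumoniae. OD595 readings every 30 min for 14 h were corrected by the first reading. Fitness divides the stationary-phase transition optical density by the robust mean of no-drug control wells. The result is capped at 1.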

[6] = system: S. pneumoniae D39V; experiment: as above
In short: as §2

[7] = system: B. subtilis 168; experiment: as above; conditions: one replicate
In short: as §2

[8] = system: S. aureus Newman; experiment: as above
In short: as §2
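For Bliss interaction score (quartile over a dose matrix) in this document: first quartile when negative (synergy) and third quartile when positive (antagonism).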

Cc1onc(-c2ccccc2)c1C(=O)N[C@@H]1C(=O)N2[C@@H]1SC(C)(C)[C@@H]2C(=O)O [Oxacillin] + CN(N=O)C(=O)N[C@@H](C=O)[C@@H](O)[C@H](O)[C@H](O)CO [Streptozotocin]
Conditions	Bliss interaction score
[1]	-0.0548
[2]	-0.0748
[3]	0.0537
[4]	-0.0656

fitness
Conditions	partner 0.15 µg/mL	partner 0.3 µg/mL	partner 0.6 µg/mL	partner 1.2 µg/mL	partner 2.4 µg/mL	partner 4.8 µg/mL
[5], first compound 0.0156 µg/mL	0.693	0.635	0.549	–	–	–
[5], first compound 0.0312 µg/mL	0.596	0.582	0.494	–	–	–
[5], first compound 0.0625 µg/mL	0.462	0.493	0.396	–	–	–
[6], first compound 0.01 µg/mL	–	–	–	0.941	0.977	0.927
[6], first compound 0.02 µg/mL	–	–	–	0.889	0.873	0.866
[6], first compound 0.04 µg/mL	–	–	–	0.243	0.245	0.212
[7], first compound 0.002 µg/mL	≥ 1	0.98	0.998	–	–	–
[7], first compound 0.004 µg/mL	≥ 1	≥ 1	≥ 1	–	–	–
[7], first compound 0.008 µg/mL	0.946	0.983	0.882	–	–	–
[7], first compound 0.075 µg/mL	0.593	0.377	0.593	–	–	–
[7], first compound 0.15 µg/mL	0.0403	0.0243	0.0217	–	–	–
[7], first compound 0.3 µg/mL	0.0476	0.0338	0.0158	–	–	–
[8], first compound 0.0156 µg/mL	0.663	0.593	0.454	–	–	–
[8], first compound 0.0312 µg/mL	0.613	0.57	0.387	–	–	–
[8], first compound 0.0625 µg/mL	0.538	0.466	0.228	–	–	–
